Data taken from patent publication US10166290B2, “Intralesional (Intratumoral) dinitrochlorobenzene and associated compounds coadministered with checkpoint inhibitors for cancer treatment including treatment of metastatic cutaneous cancers” (priority 2017, dated 2019).
Read-outs that look alike come from different tables or passages of the source.

Assays:
[1] = system: progressive, locally metastatic melanoma; test: Intralesional DNCB injections into melanoma satellite / in transit metastatic lesions, case reports of three patients; format: in vivo, human
Description: Following are the case reports of three long term (over ten year) survivors treated with intralesional DNCB in the setting of what was apparently uncontrollable, progressive, locally metastatic melanoma, ordinarily lethal as a result of subsequent progressive metastatic disease to the liver, lungs and/or brain.
Patient #1 was […] when they presented for treatment with progressive satellitosis and in transit metastases in their right leg. Four years previously they had undergone elsewhere a wide excision and split thickness skin grafting for a Clark Level IV melanoma of their right calf. […] One month prior to their presentation with satellitosis, recurrence had been noticed in the skin of the right popliteal fossa, and slightly higher. Their surgeon had planned to do a local excision in the region but had desisted when, at the time of their skin incision, multiple metastatic deposits were grossly visible in the deep dermal and subcutaneous regions. […] Two weeks after presentation, at the time of their first round of intralesional injections, the patient was noted to have 14 metastatic lesions in the posterior thigh region. These were each infiltrated with xylocaine and injected with DNCB. Each lesion was individually marked and followed. It was later estimated that 13 of the 14 lesions injected on this round ultimately regressed. A month after the first round of injections the patient underwent a second round of injections into five lesions on the posterior thigh. Four weeks after their second round of injections, a third round of injections was carried out for 10 lesions which had newly appeared. […] Accordingly the patient was taken to the operating room and an excision was carried out. […]
Patient #3 was […] when they saw their local physician in upstate New York because of a pigmented posterior scalp lesion. Biopsy at that time was originally read as a (benign) blue nevus. […] The reoccurance led to a rebiopsy, now one year after the original biopsy which had been read as benign. […]

[2] = Solubility of DNCB powder in acetone; format: physicochemical; conditions: acetone diluent
Description: (§1) A drug mask and latex gloves should be used when working with the DNCB powder while preparing its dilution and preparation for injection. […] It should be noted that DNCB powder is irritating, and is also immunogenic because of its haptene like properties. […] Therefore preadministration of lidocaine or another injectable anesthetic should be used to infiltrate the tumor nodule injection site prior to the injection into the same site of the DNCB solution in acetone.

[3] = Side effects of intralesional DNCB injections in the case reports; format: in vivo, human
Description: Patient #3 was […] when they saw their local physician in upstate New York because of a pigmented posterior scalp lesion. Biopsy at that time was originally read as a (benign) blue nevus. The diagnosis was later felt to be incorrect after a recurrent lesion at the same location continued to advance, becoming larger and bleeding when they combed their hair. The reoccurance led to a rebiopsy, now one year after the original biopsy which had been read as benign. […] A re-review of the slides from the first biopsy was then carried out. […] The patient was referred to the Memorial Sloane Kettering Hospital in New York City and was prepared for urgent wide excision and skin grafting of their posterior scalp lesions. […] The operative procedure was cancelled and the patient was referred. At the time of presentation initial radiographic evaluation for distant disease was negative. They received intralesional DNCB injections of between two and 10 satellite lesions every 4-6 weeks. On several occasions histologic or fine needle aspiration biopsy was carried out to continue to confirm the malignant nature of the lesions before intralesional injection. Biopsies were also carried out in order to confirm the absence of malignant cells in some post-injection inflammatory sites. […] Four months after their presentation, they were noted to have fewer than usual malignant lesions for injection, and received only 2 DNCB injections. However 1 month later they underwent 10 DNCB injections. One month after that they underwent DNCB injections of 8 malignant scalp lesions. Another month later they underwent intralesional DNCB injection of 10 malignant satellite scalp lesions. One and two months later they underwent DNCB injection of 8 lesions on each of the two visits. Five weeks later and 5 weeks after that, 2 lesions were injected on each visit. Chest xray and distant metastatic evaluations remained negative. The injection sites were being routinely pre-anesthetized with 0.5% lidocaine injections containing 1:100,000 epinephrine a few minutes before the injections with DNCB in acetone. Nevertheless the DNCB injection sites were uncomfortable for 4-6 hours after the lidocaine wore off, frequently with slight residual “soreness” the next day. Their last-mentioned round of two injections took place 11 months after the beginning of their injections. No new lesions were apparent for the next 2 months. The patient reported that after this last mentioned round of two injections, there was residual scalp discomfort for 8 days. […] Their strength and activity remained normal, including frequent vigorous dancing with their spouse. They often brought photographs of their scalp taken between visits. They occasionally reported sensations in uninjected areas in the scalp, ear or mastoid regions. No new lesions were apparent for 2 months.
as §1

[4] = system: metastatic cutaneous tumor nodules; conditions: some 53 rounds of intralesional treatment, published data (3), cited from earlier work

O=[N+]([O-])c1ccc(Cl)c([N+](=O)[O-])c1 [DNCB, 2, 4 dinitrochlorobenzene]
time apparently disease free between last injections and death ([1]; Patient #1, after sixth round of injections): 30 years
time patient remained well with no evidence of metastasis after end of injections ([1]; Patient #2): 12 years
period with no apparent melanoma following last intralesional injection ([1]; Patient #3): 18 year
solubility in acetone [2]: ready solubility
constitutional symptoms such as fatigue, fever, or malaise ([3]; Patient #3): no constitutional symptoms
duration of injection site discomfort after the lidocaine wore off ([3]; Patient #3, DNCB in acetone, sites pre-anesthetized with 0.5% lidocaine): 4 to 6 h
facial swelling after injections ([3]; Patient #3, after round of 3 lesions injected): mild facial swelling for a few days
duration of residual scalp discomfort ([3]; Patient #3, after round of two injections 11 months after beginning): 8 days
local effect of the DNCB solution in acetone on injection ([3]; solution in acetone): irritating locally, and causes pain at the injection site
side effects of intralesional treatment [4]: local, consisting of erythema or ulceration, not life-threatening, and not associated with any internal organ damage or defects
side effects of intralesional treatment ([4]; listed as dinitrochlorobenzene): without the undesirable checkpoint inhibitor potential side effect of attacks against normal organs
side effects of intralesional treatment ([4]; listed as dinitrohalogenated compound): side effects essentially restricted to only side effects related to inflammation at the local injection sites
